Reference: patent publication US20230192705A1, “SHP2 INHIBITORS, COMPOSITIONS AND USES THEREOF” (Betta Pharmaceuticals Co., Ltd, priority 2020, published 2023)

Target: T1, SHP2 (Homo sapiens, UniProt Q06124)
T1 sequence (Q06124 1-593): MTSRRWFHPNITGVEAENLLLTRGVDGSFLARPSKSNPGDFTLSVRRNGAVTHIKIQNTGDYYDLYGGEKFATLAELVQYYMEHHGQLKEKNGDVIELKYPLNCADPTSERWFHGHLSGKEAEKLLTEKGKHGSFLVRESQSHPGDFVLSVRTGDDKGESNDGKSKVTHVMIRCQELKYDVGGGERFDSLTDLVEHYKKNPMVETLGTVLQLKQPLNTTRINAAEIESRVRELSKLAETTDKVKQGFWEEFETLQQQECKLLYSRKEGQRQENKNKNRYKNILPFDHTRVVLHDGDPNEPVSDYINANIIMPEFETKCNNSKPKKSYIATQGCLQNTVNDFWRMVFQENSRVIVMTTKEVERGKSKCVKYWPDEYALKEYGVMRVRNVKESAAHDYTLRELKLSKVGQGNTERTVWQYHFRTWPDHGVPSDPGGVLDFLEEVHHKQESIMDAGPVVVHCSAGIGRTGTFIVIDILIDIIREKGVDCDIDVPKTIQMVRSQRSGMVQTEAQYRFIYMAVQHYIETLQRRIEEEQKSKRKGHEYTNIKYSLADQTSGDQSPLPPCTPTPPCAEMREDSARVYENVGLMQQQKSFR
Test: SHP2 allosteric inhibitor enzyme activity assay (DiFMUP fluorescence)
Assay type: biochemical
Conditions: class symbols
Summary of the method: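 SHP2 activated by 0.5 μM IRS1_pY1172(dPEG8)pY1222 peptide, 0.2 ng enzyme per well, 1 h at room temperature with compound (1 μM top, 3-fold series), then DiFMUP substrate 1 h. Buffer: 60 mM HEPES, 75 mM NaCl, 75 mM KCl, 0.05% BRIJ-35, 1 mM EDTA, 5 mM DTT. Fluorescence ex 340/em 450 nm; IC50 by variable-slope fit.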

Row | SMILES | IC50 [nM]
1 | Nc1nccc(C2(c3n[nH]c4nc(N5CCC6(CC5)Cc5ccccc5[C@H]6N)[nH]c(=O)c34)CC2)c1Cl [Example 46, (S)-6-(1-amino-1,3-dihydrospiro[indene-2,4′-piperidin]-1′-yl)-3-(1-(2-amino-3-chloropyridin-4-yl)cyclopropyl)-1,5-dihydro-4H-pyrazolo[3,4-d]pyrimidin-4-one] | ≤ 20
2 | N[C@@H]1c2ccccc2CC12CCN(c1nc3[nH]nc(C4(c5ccnc(NC6CC6)c5Cl)CC4)c3c(=O)[nH]1)CC2 [Example 72, (S)-6-(1-amino-1,3-dihydrospiro[indene-2,4′-piperidin]-1′-yl)-3-(1-(3-chloro-2-(cyclopropylamino)pyridin-4-yl)cyclopropyl)-1,5-dihydro-4H-pyrazolo[3,4-d]pyrimidin-4-one] | ≤ 20
3 | Cn1cc2c(n1)CC(C)(C)C=C2c1n[nH]c2nc(N3CCC4(CC3)Cc3ccccc3[C@H]4N)[nH]c(=O)c12 [Example 153, (S)-6-(1-amino-1,3-dihydrospiro[indene-2,4′-piperidin]-1′-yl)-3-(2,6,6-trimethyl-6,7-dihydro-2H-indazol-4-yl)-1,5-dihydro-4H-pyrazolo[3,4-d]pyrimidin-4-one] | ≤ 20
4 | N[C@@H]1c2ccccc2CC12CCN(c1nc3[nH]nc(C4(c5cnnc(Cl)c5)CC4)c3c(=O)[nH]1)CC2 [Example 70, (S)-6-(1-amino-1,3-dihydrospiro[indene-2,4′-piperidin]-1′-yl)-3-(1-(6-chloropyridazin-4-yl)cyclopropyl)-1,5-dihydro-4H-pyrazolo[3,4-d]pyrimidin-4-one] | ≤ 20
5 | CCOC(=O)Nc1cccc(C2(c3n[nH]c4nc(N5CCC6(CC5)Cc5ccccc5[C@H]6N)[nH]c(=O)c34)CC2)c1 [Example 41, ethyl (S)-(3-(1-(6-(1-amino-1,3-dihydrospiro[indene-2,4′-piperidin]-1′-yl)-4-oxo-4,5-dihydro-1H-pyrazolo[3,4-d]pyrimidin-3-yl)cyclopropyl)phenyl)carbamate] | ≤ 20
6 | Cc1nc2c(s1)C(c1n[nH]c3nc(N4CCC5(CC4)Cc4ccccc4C5N)[nH]c(=O)c13)=CC(C)(C)C2 (stereo not drawn) [Example 129] | 20 to 60
7 | N[C@@H]1c2ccccc2CC12CCN(c1nc3[nH]nc(C4(c5cccc(C6CCOCC6)c5)CC4)c3c(=O)[nH]1)CC2 [Example 40, (S)-6-(1-amino-1,3-dihydrospiro[indene-2,4′-piperidin]-1′-yl)-3-(1-(3-(tetrahydro-2H-pyran-4-yl)phenyl)cyclopropyl)-1,5-dihydro-4H-pyrazolo[3,4-d]pyrimidin-4-one] | ≤ 20
8 | N#Cc1ccc2c(c1)C(c1n[nH]c3nc(N4CCC5(CC4)Cc4ccccc4C5N)[nH]c(=O)c13)=CCC2(F)F (stereo not drawn) [Example 126] | ≤ 20
9 | Cc1cc(C(F)(F)F)c2c(n1)CCC=C2c1n[nH]c2nc(N3CCC4(CC3)Cc3ccccc3[C@H]4N)[nH]c(=O)c12 [Example 140, (S)-6-(1-amino-1,3-dihydrospiro[indene-2,4′-piperidin]-1′-yl)-3-(2-methyl-4-(trifluoromethyl)-7,8-dihydroquinolin-5-yl)-1,5-dihydro-4H-pyrazolo[3,4-d]pyrimidin-4-one] | 20 to 60
10 | N[C@@H]1c2ccccc2CC12CCN(c1nc3[nH]nc(C4(c5ccnc(C(F)(F)F)c5)CC4)c3c(=O)[nH]1)CC2 [Example 27, (S)-6-(1-amino-1,3-dihydrospiro[indene-2,4′-piperidin]-1′-yl)-3-(1-(2-(trifluoromethyl)pyridin-4-yl)cyclopropyl)-1,5-dihydro-4H-pyrazolo[3,4-d]pyrimidin-4-one] | ≤ 20
11 | N[C@@H]1c2ccccc2CC12CCN(c1nc3[nH]nc(C4=CCCc5occc54)c3c(=O)[nH]1)CC2 [Example 119, (S)-6-(1-amino-1,3-dihydrospiro[indene-2,4′-piperidin]-1′-yl)-3-(6,7-dihydrobenzofuran-4-yl)-1,5-dihydro-4H-pyrazolo[3,4-d]pyrimidin-4-one] | ≤ 20
12 | N[C@@H]1c2ccccc2CC12CCN(c1nc3[nH]nc(C4(c5ccccc5)CCCC4)c3c(=O)[nH]1)CC2 [Example 97, (S)-6-(1-amino-1,3-dihydrospiro[indene-2,4′-piperidin]-1′-yl)-3-(1-phenylcyclopentyl)-1,5-dihydro-4H-pyrazolo[3,4-d]pyrimidin-4-one] | 20 to 60
13 | N[C@@H]1c2ccccc2CC12CCN(c1nc3[nH]nc(C4(c5cccc(C6CCOC6)c5)CC4)c3c(=O)[nH]1)CC2 (stereo partly drawn) [Example 39, 6-((S)-1-amino-1,3-dihydrospiro[indene-2,4′-piperidin]-1′-yl)-3-(1-(3-(tetrahydrofuran-3-yl)phenyl)cyclopropyl)-1,5-dihydro-4H-pyrazolo[3,4-d]pyrimidin-4-one] | ≤ 20
14 | COc1nccc(C2(c3n[nH]c4nc(N5CCC6(CC5)Cc5ccccc5[C@H]6N)[nH]c(=O)c34)CC2)c1Cl [Example 62, (S)-6-(1-amino-1,3-dihydrospiro[indene-2,4′-piperidin]-1′-yl)-3-(1-(3-chloro-2-methoxypyridin-4-yl)cyclopropyl)-1,5-dihydro-4H-pyrazolo[3,4-d]pyrimidin-4-one] | ≤ 20

The next lines start with the values.

Row | IC50 [nM] | SMILES
15 | ≤ 20 | CC1(C)C=C(c2n[nH]c3nc(N4CCC5(CC4)Cc4ccccc4[C@H]5N)[nH]c(=O)c23)c2ccc(C#N)nc2C1 [Example 162, (S)-5-(6-(1-amino-1,3-dihydrospiro[indene-2,4′-piperidin]-1′-yl)-4-oxo-4,5-dihydro-1H-pyrazolo[3,4-d]pyrimidin-3-yl)-7,7-dimethyl-7,8-dihydroquinoline-2-carbonitrile]
16 | > 60 | C[C@@H]1OCC2(CCN(c3nc4[nH]nc(C5(c6cc7ccccc7[nH]6)CC5)c4c(=O)[nH]3)CC2)[C@@H]1N [Example 285, 3-(1-(1H-indol-2-yl)cyclopropyl)-6-((3S,4S)-4-amino-3-methyl-2-oxa-8-azaspiro[4.5]decan-8-yl)-1,5-dihydro-4H-pyrazolo[3,4-d]pyrimidin-4-one]
17 | ≤ 20 | COc1ccc(C2(c3n[nH]c4nc(N5CCC6(CC5)Cc5ccccc5[C@H]6N)[nH]c(=O)c34)CC2)c(OC)c1 [Example 232, (S)-6-(1-amino-1,3-dihydrospiro[indene-2,4′-piperidin]-1′-yl)-3-(1-(2,4-dimethoxyphenyl)cyclopropyl)-1,5-dihydro-4H-pyrazolo[3,4-d]pyrimidin-4-one]
18 | 20 to 60 | COc1ccccc1C1(c2n[nH]c3nc(N4CCC5(CC4)CO[C@@H](C)[C@H]5N)[nH]c(=O)c23)CC1 [Example 306, 6-((3S,4S)-4-amino-3-methyl-2-oxa-8-azaspiro[4.5]decan-8-yl)-3-(1-(2-methoxyphenyl)cyclopropyl)-1,5-dihydro-4H-pyrazolo[3,4-d]pyrimidin-4-one]
19 | ≤ 20 | N[C@@H]1c2ccccc2CC12CCN(c1nc3[nH]nc(C4=CS(=O)(=O)Cc5ccccc54)c3c(=O)[nH]1)CC2 [Example 182, (S)-6-(1-amino-1,3-dihydrospiro[indene-2,4′-piperidin]-1′-yl)-3-(2,2-dioxido-1H-isothiochromen-4-yl)-1,5-dihydro-4H-pyrazolo[3,4-d]pyrimidin-4-one]
20 | ≤ 20 | N[C@@H]1c2ccccc2CC12CCN(c1nc3[nH]nc(C4=CNS(=O)(=O)c5ccccc54)c3c(=O)[nH]1)CC2 [Example 181, (S)-6-(1-amino-1,3-dihydrospiro[indene-2,4′-piperidin]-1′-yl)-3-(1,1-dioxido-2H-benzo[e][1,2]thiazin-4-yl)-1,5-dihydro-4H-pyrazolo[3,4-d]pyrimidin-4-one]
21 | ≤ 20 | N[C@@H]1c2ccccc2CC12CCN(c1nc3[nH]nc(C4(c5ncco5)CC4)c3c(=O)[nH]1)CC2 [Example 243, (S)-6-(1-amino-1,3-dihydrospiro[indene-2,4′-piperidin]-1′-yl)-3-(1-(oxazol-2-yl)cyclopropyl)-1,5-dihydro-4H-pyrazolo[3,4-d]pyrimidin-4-one]
22 | 20 to 60 | C[C@@H]1OCC2(CCN(c3nc4[nH]nc(C5(c6cccnc6)CC5)c4c(=O)[nH]3)CC2)[C@@H]1N [Example 275, 6-((3S,4S)-4-amino-3-methyl-2-oxa-8-azaspiro[4.5]decan-8-yl)-3-(1-(pyridin-3-yl)cyclopropyl)-1,5-dihydro-4H-pyrazolo[3,4-d]pyrimidin-4-one]

Same assay, conditions: numeric values

Row | IC50 [nM] | SMILES
23 | 1.7 | N[C@@H]1c2ccccc2CC12CCN(c1nc3[nH]nc(C4=CSCc5ccccc54)c3c(=O)[nH]1)CC2 [Example 134, (S)-6-(1-amino-1,3-dihydrospiro[indene-2,4′-piperidin]-1′-yl)-3-(1H-isothiochromen-4-yl)-1,5-dihydro-4H-pyrazolo[3,4-d]pyrimidin-4-one]
24 | 1.9 | N[C@@H]1c2ccccc2CC12CCN(c1nc3[nH]nc(C4CCCc5ncccc54)c3c(=O)[nH]1)CC2 (stereo partly drawn) [Example 108, 6-((S)-1-amino-1,3-dihydrospiro[indene-2,4′-piperidin]-1′-yl)-3-(5,6,7,8-tetrahydroquinolin-5-yl)-1,5-dihydro-4H-pyrazolo[3,4-d]pyrimidin-4-one]
